Holding throughout (type): biochemical
The target of one experiment is T1, hCA I (Homo sapiens, UniProt P00915).
T1 construct: made in house
The experiment in a line: stopped-flow CO2 hydrase assay, hCA I. The conditions noted are these: recombinant enzyme, 15 min preincubation, pH 8.3, mean from 3 assays.

The target of a further experiment is T2, hCA II (Homo sapiens, UniProt P00918).
T2 construct: made in house
The experiment in a line: stopped-flow CO2 hydrase assay, hCA II. The following applies: recombinant enzyme, 15 min preincubation, pH 8.3, mean from 3 assays.

In a further experiment the target is T3, hCA IV (Homo sapiens, UniProt P22748).
T3 construct: made in house
The experiment in a line: stopped-flow CO2 hydrase assay, hCA IV. The conditions noted are these: recombinant enzyme, 15 min preincubation, pH 8.3, mean from 3 assays.

A further experiment addresses T4, hCA IX (Homo sapiens, UniProt Q16790).
T4 construct: made in house
The experiment can be described thus: stopped-flow CO2 hydrase assay, hCA IX. The conditions noted are these: for Selectivity II/IX: ratio Ki hCA II / Ki hCA IX; for Ki: recombinant enzyme, 15 min preincubation, pH 8.3, mean from 3 assays.

The target of a further experiment is T5, hCA XII (Homo sapiens, UniProt O43570).
T5 construct: made in house
The experiment in a line: stopped-flow CO2 hydrase assay, hCA XII. The conditions noted are these: for Selectivity II/XII: ratio Ki hCA II / Ki hCA XII; for Ki: recombinant enzyme, 15 min preincubation, pH 8.3, mean from 3 assays.

The values that follow come from article PMC8537140, “Synthesis and Inhibition Activity Study of Triazinyl-Substituted Amino(alkyl)-benzenesulfonamide Conjugates with Polar and Hydrophobic Amino Acids as Inhibitors of Human Carbonic Anhydrases I, II, IV, IX, and XII” (International Journal of Molecular Sciences, 2021).

As usually defined, the Ki is a dissociation constant, usually derived from enzyme kinetics or from competition with a known ligand.

Each structure is given as a SMILES string. Where only a bound is given, the exact number is not on record here.

T5 sequence (O43570 25-354): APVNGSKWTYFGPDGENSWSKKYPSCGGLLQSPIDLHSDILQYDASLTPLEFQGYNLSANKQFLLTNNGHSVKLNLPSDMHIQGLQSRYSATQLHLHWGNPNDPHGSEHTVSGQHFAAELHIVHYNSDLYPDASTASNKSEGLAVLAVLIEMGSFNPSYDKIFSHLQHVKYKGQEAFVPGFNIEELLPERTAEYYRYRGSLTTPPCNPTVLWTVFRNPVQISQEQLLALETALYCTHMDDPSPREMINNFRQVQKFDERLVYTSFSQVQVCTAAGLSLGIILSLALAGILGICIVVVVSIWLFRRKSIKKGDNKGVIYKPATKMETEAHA
T3 sequence (P22748 19-312): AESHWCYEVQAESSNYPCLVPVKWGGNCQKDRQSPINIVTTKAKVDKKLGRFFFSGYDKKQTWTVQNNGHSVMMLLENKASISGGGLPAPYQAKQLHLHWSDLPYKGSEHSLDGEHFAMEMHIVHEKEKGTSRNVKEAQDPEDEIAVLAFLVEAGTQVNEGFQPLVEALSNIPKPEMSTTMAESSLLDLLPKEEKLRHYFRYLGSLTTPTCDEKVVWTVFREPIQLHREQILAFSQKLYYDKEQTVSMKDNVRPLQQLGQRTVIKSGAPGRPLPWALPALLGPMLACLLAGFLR
T1 sequence (P00915 whole entry): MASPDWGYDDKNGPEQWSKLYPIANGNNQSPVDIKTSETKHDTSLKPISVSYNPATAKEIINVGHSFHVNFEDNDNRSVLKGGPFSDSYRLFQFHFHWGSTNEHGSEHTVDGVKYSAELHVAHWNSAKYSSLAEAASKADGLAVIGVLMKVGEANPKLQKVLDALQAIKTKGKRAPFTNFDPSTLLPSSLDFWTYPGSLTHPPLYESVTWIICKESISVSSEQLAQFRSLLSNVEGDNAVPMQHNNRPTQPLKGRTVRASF
Procedure for hCA II: (§1) An Applied Photophysics stopped-flow instrument (Applied Photophysics, Leatherhead, UK) was used for assaying the CA-catalyzed CO2 hydration activity [31]. […] The uncatalyzed rates were determined in the same manner and subtracted from the total observed rates. Stock solutions of inhibitor (0.1 mM) were prepared in distilled-deionized water and dilutions up to 0.005 nM were done thereafter with the assay buffer. Inhibitor and enzyme solutions were preincubated together for 15 min at room temperature prior to assay, in order to allow formation of the E–I complex. The inhibition constants were obtained by non-linear least-squares methods using PRISM 3 and the ChengPrusoff equation, as reported earlier, and represent the mean from at least three different determinations. All CA isozymes were recombinant ones obtained in-house.
Procedure for hCA IV: as §1
Procedure for hCA IX: as §1
Procedure for hCA XII: as §1

In the case of `NC(=O)CC(Nc1nc(NCCc2ccc(S(N)(=O)=O)cc2)nc(NC(CC(N)=O)C(=O)O)n1)C(=O)O` (centres unmarked) [compound 23, 2,2′-[(6-({2-(4-sulfamoylphenyl)ethyl}amino)-1,3,5-triazine-2,4-diyl)diimino]bis(3-carbamoylpropanoic acid)], the inhibition constant (Ki) on hCA I was 886 nM; on hCA II, 136 nM; on hCA IV, greater than 10000 nM; on hCA IX it was 377 nM; at hCA XII, 53.1 nM. Further, the “Selectivity II/IX” value at hCA IX is on record as 0.36. In addition, the “Selectivity II/XII” value on hCA XII is 2.60.

With `NC(=O)CCC(Nc1nc(NCCc2ccc(S(N)(=O)=O)cc2)nc(NC(CCC(N)=O)C(=O)O)n1)C(=O)O` (centres unmarked) [compound 24, 2,2′-[(6-({2-(4-sulfamoylphenyl)ethyl}amino)-1,3,5-triazine-2,4-diyl)diimino]bis(4-carbamoylbutanoic acid)], the Ki was 684 nM at hCA I; 191 nM at hCA II; greater than 10000 nM on hCA IV; 480 nM at hCA IX; 57 nM at hCA XII. Also, the “Selectivity II/IX” value on hCA IX was 0.40. For the same compound, the “Selectivity II/XII” value on hCA XII is recorded as 3.40.
